biological target: T1, full length AKT E17K (Homo sapiens, UniProt P31749, E17K); assay: NanoBRET Target Engagement (TE) Assay; format: cell-based; settings: competitive displacement of tracer in cells, read-out: AKT1 E17K IC50
T1 construct: host or cells: HEK-293 (ATCC CRL-1573)
Procedure, shortened: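 Compound and tracer incubated 2 h before luminescence at donor 450 nm and acceptor 600 nm, with extracellular signal inhibited. EC50 by sigmoidal variable-slope regression.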

T1 sequence (P31749 whole entry E17K): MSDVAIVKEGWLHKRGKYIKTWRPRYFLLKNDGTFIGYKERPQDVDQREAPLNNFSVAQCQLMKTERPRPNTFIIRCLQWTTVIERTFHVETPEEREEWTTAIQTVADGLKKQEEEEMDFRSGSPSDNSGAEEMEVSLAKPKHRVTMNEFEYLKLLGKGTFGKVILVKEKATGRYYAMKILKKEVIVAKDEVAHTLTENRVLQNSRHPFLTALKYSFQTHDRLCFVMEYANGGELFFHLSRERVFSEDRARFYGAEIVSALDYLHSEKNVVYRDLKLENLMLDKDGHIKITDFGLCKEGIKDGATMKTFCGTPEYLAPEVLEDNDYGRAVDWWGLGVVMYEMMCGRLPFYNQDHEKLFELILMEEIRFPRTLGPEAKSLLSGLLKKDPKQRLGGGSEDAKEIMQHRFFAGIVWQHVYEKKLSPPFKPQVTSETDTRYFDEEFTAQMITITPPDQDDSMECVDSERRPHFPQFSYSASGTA

IC50	SMILES
< 15 nM	N#Cc1nccc(NC2CCN(Cc3ccc(-n4c(-c5cccnc5N)nc5ccc(-c6cnccc6F)nc54)cc3)CC2)n1 [Example 595, 4-((1-(4-(2-(2-Aminopyridin-3-yl)-5-(4-fluoropyridin-3-yl)-3H-imidazo[4,5-b]pyridin-3-yl)benzyl)piperidin-4-yl)amino)pyrimidine-2-carbonitrile]
< 15 nM	Cc1ccnc(-c2ccc3nc(-c4cccnc4N)n(-c4ccc(CN5CCC(Nc6ccnc(C#N)n6)CC5)cc4)c3n2)c1 [Example 596, 4-((1-(4-(2-(2-Aminopyridin-3-yl)-5-(4-methylpyridin-2-yl)-3H-imidazo[4,5-b]pyridin-3-yl)benzyl)piperidin-4-yl)amino)pyrimidine-2-carbonitrile]
< 15 nM	[2H]c1nc(OC([2H])([2H])[2H])ccc1-c1ccc2nc(-c3cccnc3N)n(-c3ccc(CN4CCC(Nc5ccnc(C#N)n5)CC4)cc3)c2n1 [Example 597, 4-((1-(4-(2-(2-aminopyridin-3-yl)-5-(6-(methoxy-d3)pyridin-3-yl-2-d)-3H-imidazo[4,5-b]pyridin-3-yl)benzyl)piperidin-4-yl)amino)pyrimidine-2-carbonitrile]
< 15 nM	[2H]C([2H])([2H])Oc1ccc(-c2ccc3nc(-c4cccnc4N)n(-c4ccc(CN5CCC(Nc6ccnc(C#N)n6)CC5)cc4)c3n2)cn1 [Example 598, 4-((1-(4-(2-(2-aminopyridin-3-yl)-5-(6-(methoxy-d3)pyridin-3-yl)-3H-imidazo[4,5-b]pyridin-3-yl)benzyl)piperidin-4-yl)amino)pyrimidine-2-carbonitrile]
600 to 10000 nM	N#Cc1nccc(NC2CCN(Cc3ccc(-n4c(-c5cccnc5N)nc5cc(C#N)c(O)nc54)cc3)CC2)n1 [Example 599, 2-(2-Aminopyridin-3-yl)-3-(4-((4-((2-cyanopyrimidin-4-yl)amino)piperidin-1-yl)methyl)phenyl)-5-hydroxy-3H-imidazo[4,5-b]pyridine-6-carbonitrile]
15 to 60 nM	N#Cc1nccc(NC2CCN(Cc3ccc(-n4c(-c5c(F)ccnc5N)nc5ccc(-c6ccc(F)cn6)nc54)cc3)CC2)n1 [Example 600, 4-((1-(4-(2-(2-Amino-4-fluoropyridin-3-yl)-5-(5-fluoropyridin-2-yl)-3H-imidazo[4,5-b]pyridin-3-yl)benzyl)piperidin-4-yl)amino)pyrimidine-2-carbonitrile]
600 to 10000 nM	N#Cc1nccc(NC2CCN(Cc3ccc(-n4c(-c5cncnc5)nc5ccc(-c6ccc(F)cn6)nc54)cc3)CC2)n1 [Example 601, 4-((1-(4-(5-(5-Fluoropyridin-2-yl)-2-(pyrimidin-5-yl)-3H-imidazo[4,5-b]pyridin-3-yl)benzyl)piperidin-4-yl)amino)pyrimidine-2-carbonitrile]
< 15 nM	N#Cc1nccc(NC2CCN(Cc3ccc(-n4c(-c5cccnc5N)nc5ccc(-c6ccc(F)cn6)cc54)cc3)CC2)n1 [Example 602, 4-((1-(4-(2-(2-Aminopyridin-3-yl)-6-(5-fluoropyridin-2-yl)-1H-benzo[d]imidazol-1-yl)benzyl)piperidin-4-yl)amino)pyrimidine-2-carbonitrile]
< 15 nM	N#Cc1nccc(NC2CCN(Cc3ccc(-n4c(-c5cccnc5N)nc5ccc(-c6ncc(F)cn6)nc54)cc3)CC2)n1 [Example 603, 4-((1-(4-(2-(2-Aminopyridin-3-yl)-5-(5-fluoropyrimidin-2-yl)-3H-imidazo[4,5-b]pyridin-3-yl)benzyl)piperidin-4-yl)amino)pyrimidine-2-carbonitrile]
< 15 nM	Cc1cnc(-c2ccc3nc(-c4cccnc4N)n(-c4ccc(CN5CCC(Nc6ccnc(C#N)n6)CC5)cc4)c3n2)nc1 [Example 604, 4-((1-(4-(2-(2-Aminopyridin-3-yl)-5-(5-methylpyrimidin-2-yl)-3H-imidazo[4,5-b]pyridin-3-yl)benzyl)piperidin-4-yl)amino)pyrimidine-2-carbonitrile]
< 15 nM	N#Cc1nccc(NC2CCN(Cc3ccc(-n4c(-c5cccnc5N)nc5ccc(-c6cnc(F)cn6)nc54)cc3)CC2)n1 [Example 605, 4-((1-(4-(2-(2-Aminopyridin-3-yl)-5-(5-fluoropyrazin-2-yl)-3H-imidazo[4,5-b]pyridin-3-yl)benzyl)piperidin-4-yl)amino)pyrimidine-2-carbonitrile]
< 15 nM	N#Cc1nccc(NC2CCN(Cc3ccc(-n4c(-c5cccnc5N)nc5ccc(-c6ccc(OCF)nc6)nc54)cc3)CC2)n1 [Example 606, 4-((1-(4-(2-(2-Aminopyridin-3-yl)-5-(6-(fluoromethoxy)pyridin-3-yl)-3H-imidazo[4,5-b]pyridin-3-yl)benzyl)piperidin-4-yl)amino)pyrimidine-2-carbonitrile]
15 to 60 nM	N#Cc1nccc(NC2CCN(Cc3ccc(-n4c(-c5cccnc5N)nc5ccc(-c6ccc(=O)n(CF)c6)nc54)cc3)CC2)n1 [Example 607, 4-((1-(4-(2-(2-Aminopyridin-3-yl)-5-(1-(fluoromethyl)-6-oxo-1,6-dihydropyridin-3-yl)-3H-imidazo[4,5-b]pyridin-3-yl)benzyl)piperidin-4-yl)amino)pyrimidine-2-carbonitrile]
< 15 nM	[2H]C([2H])([2H])n1ncc(-c2ccc3nc(-c4cccnc4N)n(-c4ccc(CN5CCC(Nc6ccnc(C#N)n6)CC5)cc4)c3n2)n1 [Example 608, 4-((1-(4-(2-(2-Aminopyridin-3-yl)-5-(2-(methyl-d3)-2H-1,2,3-triazol-4-yl)-3H-imidazo[4,5-b]pyridin-3-yl)benzyl)piperidin-4-yl)amino)pyrimidine-2-carbonitrile]
< 15 nM	CCn1ncc(-c2ccc3nc(-c4cccnc4N)n(-c4ccc(CN5CCC(Nc6ccnc(C#N)n6)CC5)cc4)c3n2)n1 [Example 609, 4-((1-(4-(2-(2-Aminopyridin-3-yl)-5-(2-ethyl-2H-1,2,3-triazol-4-yl)-3H-imidazo[4,5-b]pyridin-3-yl)benzyl)piperidin-4-yl)amino)pyrimidine-2-carbonitrile]
< 15 nM	CC(C)n1ncc(-c2ccc3nc(-c4cccnc4N)n(-c4ccc(CN5CCC(Nc6ccnc(C#N)n6)CC5)cc4)c3n2)n1 [Example 610, 4-((1-(4-(2-(2-Aminopyridin-3-yl)-5-(2-isopropyl-2H-1,2,3-triazol-4-yl)-3H-imidazo[4,5-b]pyridin-3-yl)benzyl)piperidin-4-yl)amino)pyrimidine-2-carbonitrile]
< 15 nM	CC(C)n1cc(-c2ccc3nc(-c4cccnc4N)n(-c4ccc(CN5CCC(Nc6ccnc(C#N)n6)CC5)cc4)c3n2)nn1 [Example 611, 4-((1-(4-(2-(2-Aminopyridin-3-yl)-5-(1-isopropyl-1H-1,2,3-triazol-4-yl)-3H-imidazo[4,5-b]pyridin-3-yl)benzyl)piperidin-4-yl)amino)pyrimidine-2-carbonitrile]
< 15 nM	[2H]C([2H])([2H])c1nn(C)nc1-c1ccc2nc(-c3cccnc3N)n(-c3ccc(CN4CCC(Nc5ccnc(C#N)n5)CC4)cc3)c2n1 [Example 612, 4-((1-(4-(2-(2-Aminopyridin-3-yl)-5-(2-methyl-5-(methyl-d3)-2H-1,2,3-triazol-4-yl)-3H-imidazo[4,5-b]pyridin-3-yl)benzyl)piperidin-4-yl)amino)pyrimidine-2-carbonitrile]
< 15 nM	N#Cc1nccc(NC2CCN(Cc3ccc(-n4c(-c5cccnc5N)nc5ccc(-c6cn[nH]n6)nc54)cc3)CC2)n1 [Example 613, 4-((1-(4-(2-(2-Aminopyridin-3-yl)-5-(2H-1,2,3-triazol-4-yl)-3H-imidazo[4,5-b]pyridin-3-yl)benzyl)piperidin-4-yl)amino)pyrimidine-2-carbonitrile]
< 15 nM	Cc1nn(C)nc1-c1ccc2nc(-c3cccnc3N)n(-c3ccc(CN4CCC(Nc5ccnc(C#N)n5)CC4)cc3)c2n1 [Example 614, 4-((1-(4-(2-(2-Aminopyridin-3-yl)-5-(2,5-dimethyl-2H-1,2,3-triazol-4-yl)-3H-imidazo[4,5-b]pyridin-3-yl)benzyl)piperidin-4-yl)amino)pyrimidine-2-carbonitrile]
< 15 nM	N#Cc1nccc(NC2CCN(Cc3ccc(-n4c(-c5cccnc5N)nc5ccc(-c6cnn(C7CC7)n6)nc54)cc3)CC2)n1 [Example 615, 4-((1-(4-(2-(2-Aminopyridin-3-yl)-5-(2-cyclopropyl-2H-1,2,3-triazol-4-yl)-3H-imidazo[4,5-b]pyridin-3-yl)benzyl)piperidin-4-yl)amino)pyrimidine-2-carbonitrile]
< 15 nM	[2H]c1nn(C)nc1-c1ccc2nc(-c3cccnc3N)n(-c3ccc(CN4CCC(Nc5ccnc(C#N)n5)CC4)cc3)c2n1 [Example 616, 4-((1-(4-(2-(2-Aminopyridin-3-yl)-5-(2-methyl-2H-1,2,3-triazol-4-yl-5-d)-3H-imidazo[4,5-b]pyridin-3-yl)benzyl)piperidin-4-yl)amino)pyrimidine-2-carbonitrile]
15 to 60 nM	N#Cc1nccc(NC2CCN(Cc3ccc(-n4c(-c5cccnc5N)nc5ccc(-c6ccc(=O)n(C(F)F)c6)nc54)cc3)CC2)n1 [Example 617, 4-((1-(4-(2-(2-Aminopyridin-3-yl)-5-(1-(difluoromethyl)-6-oxo-1,6-dihydropyridin-3-yl)-3H-imidazo[4,5-b]pyridin-3-yl)benzyl)piperidin-4-yl)amino)pyrimidine-2-carbonitrile]
< 15 nM	N#Cc1nccc(NC2CCN(Cc3ccc(-n4c(-c5cccnc5N)nc5ccc(-c6cnn(CF)n6)nc54)cc3)CC2)n1 [Example 618, 4-((1-(4-(2-(2-Aminopyridin-3-yl)-5-(2-(fluoromethyl)-2H-1,2,3-triazol-4-yl)-3H-imidazo[4,5-b]pyridin-3-yl)benzyl)piperidin-4-yl)amino)pyrimidine-2-carbonitrile]
< 15 nM	N#Cc1nccc(NC2CCN(Cc3ccc(-n4c(-c5cccnc5N)nc5ccc(-c6cn(CF)nn6)nc54)cc3)CC2)n1 [Example 619, 4-((1-(4-(2-(2-Aminopyridin-3-yl)-5-(1-(fluoromethyl)-1H-1,2,3-triazol-4-yl)-3H-imidazo[4,5-b]pyridin-3-yl)benzyl)piperidin-4-yl)amino)pyrimidine-2-carbonitrile]
